The record followed here is patent US10590084B2, “Cyclic keto-amide compounds as calpain modulators and methods of production and use thereof” (Blade Therapeutics, Inc., priority 2016, dated 2020).

One experiment addresses T1, Human Calpain 9/NS1 (Homo sapiens, UniProt O14815).
T1 sequence (O14815 1-690): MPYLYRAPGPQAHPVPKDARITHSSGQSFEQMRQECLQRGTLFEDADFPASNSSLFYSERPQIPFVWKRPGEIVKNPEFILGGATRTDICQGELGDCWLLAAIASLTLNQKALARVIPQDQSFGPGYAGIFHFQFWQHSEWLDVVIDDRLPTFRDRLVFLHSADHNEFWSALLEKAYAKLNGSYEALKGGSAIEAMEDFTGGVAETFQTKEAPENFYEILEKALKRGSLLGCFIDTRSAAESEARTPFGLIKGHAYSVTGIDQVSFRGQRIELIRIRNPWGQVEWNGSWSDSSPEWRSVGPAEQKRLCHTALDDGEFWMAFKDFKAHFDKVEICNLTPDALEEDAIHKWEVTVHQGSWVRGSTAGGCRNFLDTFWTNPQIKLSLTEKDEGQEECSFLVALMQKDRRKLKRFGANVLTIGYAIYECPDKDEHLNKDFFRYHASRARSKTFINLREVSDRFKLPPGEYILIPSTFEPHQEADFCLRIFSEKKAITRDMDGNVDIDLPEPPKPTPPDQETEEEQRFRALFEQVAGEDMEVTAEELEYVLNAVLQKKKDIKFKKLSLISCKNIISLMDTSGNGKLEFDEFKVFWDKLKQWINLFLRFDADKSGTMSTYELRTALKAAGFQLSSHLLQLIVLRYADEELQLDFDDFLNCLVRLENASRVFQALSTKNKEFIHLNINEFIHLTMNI
T1 sequence (P04632 1-268 partner): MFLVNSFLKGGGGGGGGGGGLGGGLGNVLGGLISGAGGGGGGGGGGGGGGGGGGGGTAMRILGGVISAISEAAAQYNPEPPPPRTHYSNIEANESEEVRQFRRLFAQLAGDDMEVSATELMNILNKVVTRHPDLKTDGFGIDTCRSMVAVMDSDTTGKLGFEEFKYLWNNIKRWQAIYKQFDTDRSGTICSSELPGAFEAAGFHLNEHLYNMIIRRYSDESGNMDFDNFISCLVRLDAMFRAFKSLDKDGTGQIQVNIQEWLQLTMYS
In words: Biochemical inhibition of Calpain 9, continuous fluorescence (FRET) assay. The settings on record: mean; class symbols; read-out: Human Calpain 9/NS1 IC50 (nM)_MEAN. Here is the method:
(§1) Biochemical inhibition of Calpains 1, 2, and 9.
(§2) Calpains 1, 2, and 9 activity and inhibition thereof are assessed by means of a continuous fluorescence assay. The SensoLyte 520 Calpain substrate (Anaspec Inc) is optimized for detecting calpain activity. This substrate contains a novel internally quenched 5-FAM/QXLTM 520 FRET pair. Calpains 1, 2 and 9 cleave the FRET substrate into two separate fragments resulting in an increase of 5-FAM fluorescence that is proportional to calpain activity.
(§3) Assays are typically setup in black 384-well plates using automated liquid handling as follows. Calpain assay base buffer typically contains 50 mM Tris, pH 7.5, 100 mM NaCl and 1 mM DTT. Inhibitors are serially diluted in DMSO and used to setup 2× mixtures with calpains in the aforementioned buffer. After incubation at ambient temperature (25 C), the reaction is initiated by adding a 2× mix of the fluorescent peptide substrate and CaCl2 (required for in-situ calpain activation) in the same buffer. Reaction progress curve data are typically collected for 10 min using excitation/emission wavelengths of 490 nm/520 nm on SpectraMax i3x or the FLIPR-Tetra plate readers (Molecular Devices Inc). Reaction rates were calculated from progress curve slopes typically over 1-5 min. Dose response curves (rate vs. log inhibitor concentration) were typically fit to a 4-parameter logistic function to extract IC50 values.
Column C: Human Calpain 9/NS1 IC50 (nM)_MEAN • A: <3 uM; • B: 3-10 uM; • C: >10 uM;

The next experiment concerns the target T2, Human Calpain 2/NS1 (Homo sapiens, UniProt P17655).
T2 sequence (P17655 1-700): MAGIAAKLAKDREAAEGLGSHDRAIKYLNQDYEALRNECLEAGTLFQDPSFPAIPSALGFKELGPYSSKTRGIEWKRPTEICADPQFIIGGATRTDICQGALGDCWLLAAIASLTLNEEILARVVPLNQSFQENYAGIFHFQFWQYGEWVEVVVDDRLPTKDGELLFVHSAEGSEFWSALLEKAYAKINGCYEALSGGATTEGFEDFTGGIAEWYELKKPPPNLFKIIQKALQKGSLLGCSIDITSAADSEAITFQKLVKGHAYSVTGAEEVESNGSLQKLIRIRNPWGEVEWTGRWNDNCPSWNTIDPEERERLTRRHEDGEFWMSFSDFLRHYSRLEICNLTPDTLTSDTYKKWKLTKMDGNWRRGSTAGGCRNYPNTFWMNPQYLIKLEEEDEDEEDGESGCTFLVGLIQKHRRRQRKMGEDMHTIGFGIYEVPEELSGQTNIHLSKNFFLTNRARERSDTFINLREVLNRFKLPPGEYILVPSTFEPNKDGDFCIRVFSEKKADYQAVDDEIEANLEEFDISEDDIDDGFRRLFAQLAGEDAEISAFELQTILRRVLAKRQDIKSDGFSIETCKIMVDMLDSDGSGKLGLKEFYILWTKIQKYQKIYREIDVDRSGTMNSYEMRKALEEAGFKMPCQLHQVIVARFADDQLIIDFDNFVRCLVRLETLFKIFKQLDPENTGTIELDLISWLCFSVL
T2 sequence (P04632 1-268 partner): T1 sequence (P04632 1-268 partner)
Briefly: Biochemical inhibition of Calpain 2, continuous fluorescence (FRET) assay. The following applies: mean; class symbols; read-out: Human Calpain 2/NS1 IC50 (nM)_MEAN. Here is the method:
as §1, §2, §3
Column B: Human Calpain 2/NS1 IC50 (nM)_MEAN

In another experiment the target is T3, Human Calpain 1/NS1 (Homo sapiens, UniProt P07384).
T3 sequence (P07384 1-714): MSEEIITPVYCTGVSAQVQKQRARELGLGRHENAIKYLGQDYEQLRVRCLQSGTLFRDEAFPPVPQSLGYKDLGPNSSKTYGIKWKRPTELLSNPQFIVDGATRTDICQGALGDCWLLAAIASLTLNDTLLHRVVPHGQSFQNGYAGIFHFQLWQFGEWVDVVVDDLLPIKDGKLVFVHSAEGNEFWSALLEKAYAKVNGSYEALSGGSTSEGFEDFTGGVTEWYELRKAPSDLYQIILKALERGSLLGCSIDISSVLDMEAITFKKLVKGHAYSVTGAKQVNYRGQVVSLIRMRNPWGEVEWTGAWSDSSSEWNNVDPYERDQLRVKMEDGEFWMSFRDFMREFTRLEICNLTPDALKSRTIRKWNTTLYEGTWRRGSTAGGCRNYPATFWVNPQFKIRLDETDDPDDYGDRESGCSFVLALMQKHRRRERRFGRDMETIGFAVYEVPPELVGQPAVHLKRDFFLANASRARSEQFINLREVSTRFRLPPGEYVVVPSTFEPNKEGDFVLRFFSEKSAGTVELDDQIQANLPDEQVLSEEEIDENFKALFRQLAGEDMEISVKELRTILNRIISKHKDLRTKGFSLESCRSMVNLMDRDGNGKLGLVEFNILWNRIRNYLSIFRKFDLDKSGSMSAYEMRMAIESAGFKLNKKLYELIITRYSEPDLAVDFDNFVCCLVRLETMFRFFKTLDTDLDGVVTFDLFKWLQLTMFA
T3 sequence (P04632 1-268 partner): T1 sequence (P04632 1-268 partner)
In words: Biochemical inhibition of Calpain 1, continuous fluorescence (FRET) assay. The settings on record: mean; class symbols; read-out: Human Calpain 1/NS1 IC50 (nM)_MEAN. As to the method: as §1, §2, §3
Column A: Human Calpain 1/NS1 IC50 (nM)_MEAN

`CC(C)[C@H](NC(=O)OCc1ccccc1)C(=O)NC1CCCNC(=O)C1=O` (stereo partly drawn) [Compound 1]: the IC50 at Human Calpain 9/NS1 is over 10000 nM; on Human Calpain 2/NS1, 3000 to 10000 nM; at Human Calpain 1/NS1, 3000 to 10000 nM.

On to `CC(C)[C@H](NC(=O)OCc1ccccc1)C(=O)NC1CCNC(=O)C1=O` (stereo partly drawn) [Compound 5], for which the IC50 on Human Calpain 9/NS1, at Human Calpain 2/NS1 and on Human Calpain 1/NS1 was over 10000 nM throughout.

Take `CC(C)[C@H](NS(=O)(=O)c1ccc(F)cc1)C(=O)NC1CCCNC(=O)C1=O` (stereo partly drawn) [Compound 3]: the IC50 at Human Calpain 9/NS1, on Human Calpain 2/NS1 and on Human Calpain 1/NS1 was over 10000 nM each time.

As to `CC(C)[C@H](NC(=O)OCc1ccccc1)C(=O)NC1CCCCCCNC(=O)C1=O` (stereo partly drawn) [Compound 4], the IC50 at Human Calpain 9/NS1, at Human Calpain 2/NS1 and at Human Calpain 1/NS1 was under 3000 nM throughout.

As to `O=C1NCCCCCC[C@H](NC(=O)c2ccccc2-c2ccccc2)C1=O` [Compound 8], the IC50 at Human Calpain 9/NS1 was under 3000 nM; on Human Calpain 2/NS1, under 3000 nM; on Human Calpain 1/NS1 it was 3000 to 10000 nM.

As for `CC(C)[C@H](NC(=O)OCc1ccccc1)C(=O)N[C@H]1CCCCCCCNC(=O)C1=O` [Compound 9], the IC50 at Human Calpain 9/NS1, on Human Calpain 2/NS1 and on Human Calpain 1/NS1 was under 3000 nM throughout.

Regarding `CC(C)[C@H](NC(=O)OCc1ccccc1)C(=O)NC1CCCN(C)C(=O)C1=O` (stereo partly drawn) [Compound 6], the IC50 at Human Calpain 9/NS1, at Human Calpain 2/NS1 and on Human Calpain 1/NS1 was over 10000 nM in each case.

For the molecule `CC(C)C[C@H](NC(=O)[C@@H](NC(=O)OCc1ccccc1)C(C)C)C(=O)NC1CCCNC(=O)C1=O` (stereo partly drawn) [Compound 2], the IC50 on Human Calpain 9/NS1 was over 10000 nM; at Human Calpain 2/NS1, 3000 to 10000 nM; at Human Calpain 1/NS1 it was over 10000 nM.
